For series [1], the system named is Pseudomonas aeruginosa. Briefly: Antibacterial activity against Pseudomonas aeruginosa PAO1 infected in Caenorhabditis elegans assessed as worm survival rate at 2.5 ug/ml incubated for 60 hrs by bright-field microscopy relative to control. It is filed as functional.
The test system of series [2] is Pseudomonas aeruginosa. The series is described as follows: Synergistic antibacterial activity against Pseudomonas aeruginosa PAO1 infected in Caenorhabditis elegans assessed as worm survival rate at 2.5 ug/ml incubated for 72 hrs in presence of compound 16e by bright-field microscopy relative to control. It is filed as functional.
Series [3] can be described thus: Inhibition of quorum sensing system in Pseudomonas aeruginosa PAO1 assessed as inhibition of pyocyanin production incubated for 24 hrs by optical density based analysis.
The nature of series [4]: Inhibition of quorum sensing system in Pseudomonas aeruginosa PAO1 assessed as inhibition of pyocyanin production at 10 uM incubated for 24 hrs by optical density based analysis relative to control.
Series [5] in a line: Inhibition of quorum sensing system in Pseudomonas aeruginosa PAO1 assessed as inhibition of pyocyanin production at 0.625 uM incubated for 24 hrs by optical density based analysis relative to control.
Series [6] can be described thus: Inhibition of quorum sensing system in Pseudomonas aeruginosa PAO1 assessed as inhibition of elastase production at 10 uM incubated for 24 hrs by elastin-congo red dye based optical density based analysis relative to control.
Series [7] can be described thus: Inhibition of quorum sensing system in Pseudomonas aeruginosa PAO1 assessed as inhibition of rhamnolipid production at 0.625 to 20 uM incubated for 24 hrs by optical density based analysis. The settings on record: dose 0.625-20 µM.
Series [8] has as its system Pseudomonas aeruginosa. The series is described as follows: Antivirulence activity against Pseudomonas aeruginosa clinical isolate 1121 assessed as reduction of pyocyanin production at 10 uM incubated for 24 hrs by optical density based analysis relative to control. It is filed as functional. Further details: scale not given: the % may be the effect or the level left.

The subject of series [9] is Pseudomonas aeruginosa. Briefly: Antivirulence activity against Pseudomonas aeruginosa PA14 assessed as reduction of pyocyanin production at 10 uM incubated for 24 hrs by optical density based analysis relative to control. Further details: scale not given: the % may be the effect or the level left. Type of series: functional.
Series [10] has as its system Pseudomonas aeruginosa. The series is described as follows: Antivirulence activity against Pseudomonas aeruginosa clinical isolate FB assessed as reduction of pyocyanin production at 10 uM incubated for 24 hrs by optical density based analysis relative to control. Further details: scale not given: the % may be the effect or the level left. It is filed as functional.

Series [11] is described as follows: Inhibition of quorum sensing system in Pseudomonas aeruginosa PAO1 transfected with lasB-gfp reporter assessed as decrease in GFP fluorescence expression at 0.625 to 10 uM incubated for 16 hrs by microplate reader assay. Particulars: dose 0.625-10 µM.
A short description of series [12]: Inhibition of quorum sensing system in Pseudomonas aeruginosa PAO1 transfected with rhlA-gfp reporter assessed as decrease in GFP fluorescence expression at 0.625 to 10 uM incubated for 16 hrs by microplate reader assay. Particulars: dose 0.625-10 µM.
Series [13] in a line: Inhibition of quorum sensing system in Pseudomonas aeruginosa PAO1 transfected with pqsA-gfp reporter assessed as decrease in GFP fluorescence expression incubated for 16 hrs by microplate reader assay.
Series [14] in a line: Inhibition of quorum sensing system in Pseudomonas aeruginosa PAO1 transfected with GFP reporter assessed as decrease in GFP fluorescence expression at 1.25 to 10 uM incubated for 16 hrs by microplate reader assay. The settings on record: dose 1.25-10 µM.
Series [15] is described as follows: Binding affinity to recombinant PqsR LBD (94 to 332 residues) (unknown origin) expressed in Escherichia coli BL21 (DE3) assessed as dissociation constant by isothermal titration calorimetry.
Series [16] deals with Pseudomonas aeruginosa. Briefly: Antibacterial activity against Pseudomonas aeruginosa PAO1 assessed as inhibition of biofilm formation incubated for 24 hrs by crystal violet staining analysis. It is filed as functional, organism-based.
For series [17], the system named is Pseudomonas aeruginosa. The series is described as follows: Antibacterial activity against Pseudomonas aeruginosa PAO1 assessed as inhibition of biofilm formation at 50 uM incubated for 24 hrs by crystal violet staining analysis relative to control. Type of series: functional. Also noted: scale not given: the % may be the effect or the level left.
The nature of series [18]: Metal chelating activity assessed as compound-Fe3+ complex formation by measuring fluorescence signal by fluorescence spectrophotometry.
The subject of series [19] is Pseudomonas aeruginosa. The series is described as follows: Inhibition of iron homeostasis in Pseudomonas aeruginosa PAO1 assessed as decrease in pyoverdine production at 5 to 20 uM incubated for 24 hrs by fluorescence based microplate reader analysis. The settings on record: dose 5-20 µM. Type of series: functional, organism-based.
Series [20] deals with Pseudomonas aeruginosa. Briefly: Inhibition of iron homeostasis in Pseudomonas aeruginosa PAO1 assessed as decrease in pyochelin production at 1.25 to 20 uM incubated for 24 hrs by fluorescence based microplate reader analysis. Type of series: functional, organism-based. Particulars: dose 1.25-20 µM.
The subject of series [21] is Pseudomonas aeruginosa. Briefly: Anti-motility activity against Pseudomonas aeruginosa PAO1 assessed as reduction in swarming incubated for 16 hrs by crystal violet staining analysis. It is filed as functional, organism-based.
Series [22] has as its system Pseudomonas aeruginosa. The series is described as follows: Anti-motility activity against Pseudomonas aeruginosa PAO1 assessed as reduction in swimming incubated for 16 hrs by crystal violet staining analysis. Type of series: functional, organism-based.
In series [23] the test system is Pseudomonas aeruginosa. The series is described as follows: Anti-motility activity against Pseudomonas aeruginosa PAO1 assessed as reduction in twitching incubated for 16 hrs by crystal violet staining analysis. It is filed as functional, organism-based.
Series [24] has as its system Pseudomonas aeruginosa. Briefly: Synergistic antibacterial activity against Pseudomonas aeruginosa PAO1 assessed as reduction in bacterial viability at 10 uM incubated for 24 hrs in presence of ciprofloxacin at 1/2 to 1/8 times of MIC. It is filed as functional, organism-based.
Series [25] has as its system Pseudomonas aeruginosa. The series is described as follows: Synergistic antibacterial activity against Pseudomonas aeruginosa clinical isolate FB assessed as reduction in bacterial viability at 10 uM incubated for 24 hrs in presence of ciprofloxacin at 1/2 to 1/8 times of MIC. It is filed as functional, organism-based.
Series [26] concerns Pseudomonas aeruginosa. Briefly: Synergistic antibacterial activity against Pseudomonas aeruginosa clinical isolate 1121 assessed as reduction in bacterial viability at 10 uM incubated for 24 hrs in presence of ciprofloxacin at 1/2 to 1/8 times of MIC. It is filed as functional, organism-based.
Series [27] relates to Pseudomonas aeruginosa. Briefly: Synergistic antibacterial activity against Pseudomonas aeruginosa clinical isolate 1129 assessed as reduction in bacterial viability at 10 uM incubated for 24 hrs in presence of ciprofloxacin at 1/2 to 1/8 times of MIC. Type of series: functional, organism-based.
For series [28], the system named is Pseudomonas aeruginosa. Briefly: Synergistic antibacterial activity against Pseudomonas aeruginosa PAO1 assessed as reduction in bacterial viability at 10 uM incubated for 24 hrs in presence of tobramycin at 1/2 to 1/8 times of MIC. It is filed as functional, organism-based.
Series [29] deals with Pseudomonas aeruginosa. Briefly: Synergistic antibacterial activity against Pseudomonas aeruginosa clinical isolate FB assessed as reduction in bacterial viability at 10 uM incubated for 24 hrs in presence of tobramycin at 1/2 to 1/8 times of MIC. Type of series: functional, organism-based.
The test system of series [30] is Pseudomonas aeruginosa. The series is described as follows: Synergistic antibacterial activity against Pseudomonas aeruginosa clinical isolate 1121 assessed as reduction in bacterial viability at 10 uM incubated for 24 hrs in presence of tobramycin at 1/2 to 1/8 times of MIC. It is filed as functional, organism-based.
The subject of series [31] is Pseudomonas aeruginosa. Briefly: Synergistic antibacterial activity against Pseudomonas aeruginosa clinical isolate 1129 assessed as reduction in bacterial viability at 10 uM incubated for 24 hrs in presence of tobramycin at 1/2 to 1/8 times of MIC. It is filed as functional, organism-based.
The subject of series [32] is Pseudomonas aeruginosa. Briefly: Synergistic antibacterial activity against Pseudomonas aeruginosa clinical isolate 1167 assessed as reduction in bacterial viability at 10 uM incubated for 24 hrs in presence of ciprofloxacin at 1/2 to 1/8 times of MIC. It is filed as functional, organism-based.
The test system of series [33] is Pseudomonas aeruginosa. The series is described as follows: Synergistic antibacterial activity against Pseudomonas aeruginosa clinical isolate 1167 assessed as reduction in bacterial viability at 10 uM incubated for 24 hrs in presence of tobramycin at 1/2 to 1/8 times of MIC. Type of series: functional, organism-based.
For series [34], the system named is Vero. The series is described as follows: Cytotoxicity against African green monkey Vero cells at 1.56 to 50 uM incubated for 24 hrs by MTT assay. Type of series: toxicity, cell-based. The settings on record: chlorocebus sabaeus, dose 1.56-50 µM.
Series [35] has as its system Vero. The series is described as follows: Cytotoxicity against African green monkey Vero cells at 100 uM incubated for 24 hrs by MTT assay. Type of series: toxicity, cell-based. Particulars: chlorocebus sabaeus.
The nature of series [36]: Toxicity in Caenorhabditis elegans assessed as effect on survival at 100 uM incubated for 60 hrs by bright-field microscopy.
Series [37] concerns Pseudomonas aeruginosa. Briefly: Antibacterial activity against Pseudomonas aeruginosa PAO1 infected in Caenorhabditis elegans assessed as increase in worm survival by measuring survival time at 10 uM by bright-field microscopy. Type of series: functional.
Series [38] concerns Pseudomonas aeruginosa. The series is described as follows: Antibacterial activity against Pseudomonas aeruginosa PAO1 infected in Caenorhabditis elegans assessed as increase in worm survival by measuring survival time at 50 uM by bright-field microscopy. Type of series: functional.
Series [39] deals with Pseudomonas aeruginosa. Briefly: Antibacterial activity against Pseudomonas aeruginosa PAO1 infected in Caenorhabditis elegans assessed as worm survival rate at 0.125 ug/ml incubated for 72 hrs by bright-field microscopy relative to control. Type of series: functional.
Series [40] deals with Pseudomonas aeruginosa. The series is described as follows: Synergistic antibacterial activity against Pseudomonas aeruginosa PAO1 infected in Caenorhabditis elegans assessed as worm survival rate at 10 uM incubated for 72 hrs in presence of ciprofloxacin by bright-field microscopy relative to control. It is filed as functional.
The test system of series [41] is Pseudomonas aeruginosa. The series is described as follows: Synergistic antibacterial activity against Pseudomonas aeruginosa PAO1 infected in Caenorhabditis elegans assessed as worm survival rate at 50 uM incubated for 72 hrs in presence of ciprofloxacin by bright-field microscopy relative to control. It is filed as functional.
Series [42] has as its system Pseudomonas aeruginosa. The series is described as follows: Synergistic antibacterial activity against Pseudomonas aeruginosa PAO1 infected in Caenorhabditis elegans assessed as worm survival rate at 10 uM incubated for 72 hrs in presence of tobramycin by bright-field microscopy relative to control. It is filed as functional.
Series [43] concerns Pseudomonas aeruginosa. Briefly: Synergistic antibacterial activity against Pseudomonas aeruginosa PAO1 infected in Caenorhabditis elegans assessed as worm survival rate at 50 uM incubated for 72 hrs in presence of tobramycin by bright-field microscopy relative to control. Type of series: functional.

SMILES strings stand for the structures. pIC50, pKd: −log10 of the molar value. Calls of active or inactive are those of the source. No cut-off for these calls is given here.

For `NC[C@H]1O[C@H](O[C@H]2[C@H](O)[C@@H](O[C@H]3O[C@H](CO)[C@@H](O)[C@H](N)[C@H]3O)[C@H](N)C[C@@H]2N)[C@H](N)C[C@@H]1O` [TOBRAMYCIN], the survival at 2.5 µg/mL in the series with Pseudomonas aeruginosa [1] came to 18.1%; with Pseudomonas aeruginosa [2] it was 46.7%.
One may read the pIC50 as the IC50 on a negative log10 scale, so that one unit is a factor of ten. The inhibition is the drop in the measured response relative to a control, in per cent. The term pKd denotes the Kd on a negative log10 scale, so that one unit is a factor of ten. On to `Cc1cc(=O)c(O)c(CNCc2cn(-c3ccc(Oc4ccccc4)cc3)nn2)n1C`, for which the figures for the pIC50 in [3] and in series [13] were 5.57 and 5.43, respectively. The inhibition in series [4] was 69.9%; in series [5], 30%; in series [6], 26.7%. The inhibition entry (in [7]; in series [12]; in series [14]; in the series on Pseudomonas aeruginosa [19]; with Pseudomonas aeruginosa [20]) was “inactive” in each case. The Activity is 41.1% in the series on Pseudomonas aeruginosa [8]; 50.9% with Pseudomonas aeruginosa [9]; 32.2% in the series on Pseudomonas aeruginosa [10]; “Dose-Dependent Effect” with Pseudomonas aeruginosa [16]; approximately 50% in the series on Pseudomonas aeruginosa [17]; 22.4 in series [18]. For the same compound, the Activity result in the series with Pseudomonas aeruginosa [21] is “Dose-Dependent Effect”; in the series on Pseudomonas aeruginosa [22] it was “Dose-Dependent Effect”; in the series with Pseudomonas aeruginosa [23], “Dose-Dependent Effect”; in the series with Vero [34], “Non-Toxic”; with Vero [35], “Toxic”; in [36] it was “Non-Toxic”. The inhibition result in series [11] is “Active”. The pKd in series [15] was 5.96. For the same compound, the outcome in the series with Pseudomonas aeruginosa [24], in the series on Pseudomonas aeruginosa [25], with Pseudomonas aeruginosa [26], in the series on Pseudomonas aeruginosa [27], with Pseudomonas aeruginosa [28] and in the series with Pseudomonas aeruginosa [29] was Active. Further, the outcome in the series on Pseudomonas aeruginosa [30] and with Pseudomonas aeruginosa [31] was Active. Further, the result in the series on Pseudomonas aeruginosa [32] and with Pseudomonas aeruginosa [33] was inactive. For the same compound, the Survival turned out to be 30 h in the series on Pseudomonas aeruginosa [37] and 36 h with Pseudomonas aeruginosa [38]. In addition, in the series with Pseudomonas aeruginosa [39], the survival at 0.125 µg/mL turned out to be 13.1%. The survival at 10 µM in the series with Pseudomonas aeruginosa [40] was found to be 35.7%; with Pseudomonas aeruginosa [42] it was 46.7%. The survival at 50 µM came out at 87.1% in the series on Pseudomonas aeruginosa [41] and 82.3% in the series on Pseudomonas aeruginosa [43].
